From PubChem BioAssay (NCI)
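Each compound was tested at five concentrations against cells in 96-well plates for 48 hours. Abbreviation: GI50, concentration required for 50% inhibition of growth. The concentration for full growth arrest is given as TGI.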

Legend:
Test in all cases: NCI tumour cell line growth inhibition, 48 h
[1] = test system: A498 renal
[2] = test system: IGROV1 ovarian
[3] = test system: M14 melanoma
[4] = test system: MDA-MB-435
[5] = test system: NCI-H522 lung
[6] = test system: NCI/ADR-RES ovarian
[7] = test system: SF-268 CNS
[8] = test system: UO-31 renal
[9] = test system: A549 NSCLC
[10] = test system: RXF 393 renal

SMILES | TGI [1] | TGI [2] | TGI [3] | TGI [4] | TGI [5] | TGI [6] | TGI [7] | TGI [8] | GI50 [1] | GI50 [9] | TGI [9] | GI50 [2] | GI50 [4] | GI50 [5] | GI50 [6] | GI50 [10] | TGI [10] | GI50 [7] | GI50 [8] | GI50 [3]
COc1ccc(/C=C/[N+](=O)[O-])cc1 | 17.3 µM | 11.3 µM | 6.48 µM | 4.21 µM | 43.4 µM | > 100 µM | 8.11 µM | 41.3 µM |  |  |  |  |  |  |  |  |  |  |  | 
CCCCCCCCCCCCCCCCOCCCOP(=O)(O)C1CCCN(O)C1=O (configuration not stated) | 12.4 µM | 4.77 µM |  | > 100 µM | 14.8 µM | 25.6 µM | 11.7 µM | 13.7 µM | 1.73 µM | 3.56 µM | 14.4 µM | 0.609 µM | 3.13 µM | 2.76 µM | 4.02 µM | 1.9 µM | 12.2 µM | 1.81 µM | 2.77 µM | 
Nc1nncs1 | > 5000 µM | > 4680 µM | > 5000 µM | > 5000 µM | 4690 µM | > 5000 µM | > 5000 µM | > 5000 µM |  |  | 4980 µM |  |  |  |  |  | > 5000 µM |  |  | 
O=C(O)CNCc1c2ccccc2[n+]([O-])c2ccccc12 | > 100 µM | > 100 µM | > 100 µM |  | > 100 µM |  | > 100 µM | 91.7 µM |  |  | > 100 µM |  |  |  |  |  |  |  |  | 
CSc1sc(=S)sc1SC | > 100 µM | > 100 µM |  |  | > 100 µM | 54.3 µM | > 100 µM | > 100 µM |  |  | > 100 µM |  |  |  |  |  | > 100 µM |  |  | 
COC1/C=C\OC2(C)Oc3c(C)c(O)c4c(O)c(c(CN(C)C)c(O)c4c3C2=O)NC(=O)/C(C)=C\C=C/C(C)C(O)C(C)C(O)C(C)C(OC(C)=O)C1C (configuration not stated) | > 100 µM | > 100 µM | 42.1 µM | 78.6 µM | 32.1 µM | > 100 µM | > 100 µM | > 100 µM |  |  | > 100 µM |  |  |  |  |  | > 100 µM |  |  | 
C[C@H](CCC1=NCCN1)[C@H]1CC[C@H]2[C@@H]3CC[C@@H]4C[C@H](O)CC[C@]4(C)[C@H]3CC[C@]12C | 34.5 µM | 25.4 µM | > 22.6 µM | 22 µM | 14.3 µM | 39.5 µM | 34.3 µM | 31.4 µM |  |  | 22.4 µM |  |  |  |  |  | 55.2 µM |  |  | 
COC(=O)c1nc2c3c(cccc3c1C(=O)OC)Nc1ccccc1-2 | > 100 µM | > 100 µM | > 100 µM | > 100 µM | 41.5 µM | > 100 µM | > 100 µM | > 100 µM |  |  | > 100 µM |  |  |  |  |  | > 100 µM |  |  | 
NC(=O)c1cc(C2OC(CO)C(O)C2O)nn1-c1ccc([N+](=O)[O-])cc1 (configuration not stated) | > 100 µM | > 100 µM | > 100 µM |  |  |  | > 100 µM | > 100 µM |  |  | > 100 µM |  |  |  |  |  | > 100 µM |  |  | 
O=C(O)C(Br)Cc1ccc2c(c1)OCO2 (configuration not stated) | > 100 µM | > 100 µM | > 100 µM |  | > 100 µM |  | > 100 µM | > 100 µM |  |  | > 100 µM |  |  |  |  |  | > 100 µM |  |  | 
C#C[C@@]1(O)[C@@H](CO)O[C@@H](n2cc(F)c3c(N)ncnc32)[C@@H]1O | 2.27 µM | 1.42 µM | 2.39 µM | 3.26 µM | 0.929 µM | 11.3 µM | 78.3 µM | 2.48 µM | 0.725 µM | 0.377 µM | 2.64 µM | 0.324 µM | 0.416 µM | 0.18 µM | 0.306 µM | 0.727 µM | 2.99 µM | 0.751 µM | 0.47 µM | 0.481 µM
COc1cc2c3c(c4cc(OC)c(OC)cc4c2cc1OC)[C@H](O)[C@@H]1CCCN1C3 |  |  | 2.06 µM | 2.86 µM | 1.55 µM | 2.97 µM |  |  |  |  | 2.56 µM |  |  |  |  |  | 1.28 µM |  |  | 
